Publication PMC11486130, “Structure-guided discovery of novel dUTPase inhibitors with anti-Nocardia activity by computational design” (Journal of Enzyme Inhibition and Medicinal Chemistry, 2024)
≈ marks a conversion by molar mass, not a printed value. Like-named read-outs stand apart in the source and are kept apart here.

How the values were obtained:
NsdUTPase = NsdUTPase (Nocardia seriolae, UniProt A0ABF7PKI9); assay: NsdUTPase activity assay (PPi Light inorganic pyrophosphate assay kit); assay type: biochemical; details: for activity improvement: NsdUTPase IC50 compared with F0414
Description: The in vitro catalytic activity of NsdUTPase was detected by a PPi Light inorganic pyrophosphate assay kit following manufactory’s manual. […] After 120 min of incubation at room temperature, the luminescence intensity of the reaction was measured by a microplate luminometer at 560 nm.
IC50 was determined using GraphPad Prism software 9 (GraphPad Software, San Diego, CA). All experiments were performed in triplicate, and values (±standard deviations [SD]) are shown. Significant differences were determined using Student’s t-test. *p < 0.05 (considered significant compared with control group); **p < 0.01 (considered highly significant); ***p < 0.001 (considered extremely significant).

[1] = system: N. salmonicida strain JCM4826; assay: anti-Nocardia activity, microplate alamar blue assay (MABA); assay type: cell-based; details: two days at 25 °C; for MIC: 48 h
Description: (§1) The MABA method was used to determine the anti-Nocardia activity of compounds according to reported method[34] with modification. N. seriolae strain JCM3360, and N. salmonicida strain JCM4826 were gifted from Prof. Nien, Chung-Yi (National Central University, Taoyuan City, Taiwan), and cultured in M-196 medium (0.4% yeast extract; 1% malt extract; 0.4% dextrose) at 25 °C. Two strains were inoculated into 96-well plates at a concentration of ×10^6 CFU/mL and cultured in the medium, then different concentrations of compounds were added. After two days of incubation at 25 °C, the mixture of 20 μL 10× alamar blue and 50 μL 5% Tween-80 were added to observe the colour change. Minimum inhibitory concentration (MIC) is defined as the minimum compound concentration of the well varying from blue to pink.

[2] = system: N. seriolae strain JCM3360; assay: as above; assay type: cell-based; details: two days at 25 °C; for MIC: 48 h
Description: as §1

[3] = Cytotoxicity, CCK-8 assay; assay type: cell-based; details: concentration 30 µM (about 10.0 mg/L), read-out: cell viability
Description: The cytotoxicity of compounds 4b and 12b was determined by CCK-8 assay. A549 and Marc cells were cultured for the test. Concentrations of compounds varied from 0.03 to 30 µM. Meanwhile, 1% DMSO was used as a negative control. After incubation for 24 h, WST-8 was added. The experimental method referred to the kit instructions. All the experiments were repeated three times.

NsdUTPase WT = target: T1, NsdUTPase WT (Nocardia seriolae, UniProt A0ABF7PKI9); assay: Kd to WT NsdUTPase; assay type: binding, N. seriolae
T1 sequence (A0ABF7PKI9 1-166): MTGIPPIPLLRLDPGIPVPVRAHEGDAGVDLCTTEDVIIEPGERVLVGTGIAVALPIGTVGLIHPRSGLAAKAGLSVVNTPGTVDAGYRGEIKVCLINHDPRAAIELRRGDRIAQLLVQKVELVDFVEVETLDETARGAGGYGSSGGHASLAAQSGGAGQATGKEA

[4] = in vitro enzyme inhibitory activity, read-out: IC50 against NsdUTPase
[5] = African green monkey, Marc cells

Compound | IC50 (NsdUTPase; [4]) [µM] | MIC [1] [µg/mL] | MIC [2] [µg/mL] | also measured
(E)-1-Allyl-2-styryl-1H-benzo[d]imidazole [4c] | 3.78 |  |  | MIC N. salmonicida [1]: 16 µg/mL; MIC N. seriolae [2]: >50 µg/mL
C=CCn1c(-c2ccc(Oc3ccccc3)cc2)nc2ccccc21 [8a, 1-Allyl-2-(4-phenoxyphenyl)-1H-benzo[d]imidazole] | 2.61 | 4 (≈ 12.3 µM) | 4 (≈ 12.3 µM) | 
C=CCn1c(/C=C/c2ccccc2OC)nc2cc(C(=O)c3ccccc3)ccc21 [4i, (E)-(1-Allyl-2-(2-methoxystyryl)-1H-benzo[d]imidazol-5-yl)(phenyl)methanone] | 7.54 | 4 (≈ 10.1 µM) | 8 (≈ 20.3 µM) | 
C=CCn1c(/C=C/c2ccccc2)nc2c(C)cccc21 [4d, (E)-1-Allyl-4-methyl-2-styryl-1H-benzo[d]imidazole] | > 20 | 16 (≈ 58.3 µM) | 16 (≈ 58.3 µM) | 
1-Allyl-6-fluoro-5-methyl-2-(6-phenoxypyridin-3-yl)-1H-benzo[d]imidazole [12i] | 7.84 |  |  | MIC N. salmonicida [1]: 4 µg/mL; MIC N. seriolae [2]: 4 µg/mL
C=CCn1c(/C(C)=C/c2ccccc2)nc2ccccc21 [8c, (E)-1-Allyl-2-(1-phenylprop-1-en-2-yl)-1H-benzo[d]imidazole] | > 20 | 4 (≈ 14.6 µM) | 8 (≈ 29.2 µM) | 
C#CCn1c(-c2ccc(Oc3ccccc3)cc2)nc2cc(C(F)(F)F)ccc21 [12e, 2-(4-Phenoxyphenyl)-1-(prop-2-yn-1-yl)-5-(trifluoromethyl)-1H-benzo[d]imidazole] | 14.8 | 16 (≈ 40.8 µM) | 32 (≈ 81.6 µM) | 
C=CCn1c(-c2ccc(Oc3ccccc3)cc2)nc2cc(C(=O)c3ccccc3)ccc21 [12c, (1-Allyl-2-(4-phenoxyphenyl)-1H-benzo[d]imidazol-5-yl)(phenyl)methanone] | 15.4 | 8 (≈ 18.6 µM) | 16 (≈ 37.2 µM) | 
CS(=O)(=O)c1ccc([C@@H](O)[C@@H](CF)NC(=O)C(Cl)Cl)cc1 [Florfenicol, reference compound] |  | 16 (≈ 44.7 µM) | 4 (≈ 11.2 µM) | 
(E)-1-Allyl-2-styryl-1H-benzo[d]imidazole [4a] | 2.65 |  |  | MIC N. salmonicida [1]: 2 µg/mL; MIC N. seriolae [2]: 4 µg/mL
C=CCn1c(-c2ccc(Oc3ccccc3)cc2)nc2cc(C)c(C)cc21 [12d, 1-Allyl-5,6-dimethyl-2-(4-phenoxyphenyl)-1H-benzo[d]imidazole] | 3.71 | 4 (≈ 11.3 µM) | 8 (≈ 22.6 µM) | 
C=CCn1c(-c2ccc3ccccc3c2)nc2ccccc21 [8e, 1-Allyl-2-(naphthalen-2-yl)-1H-benzo[d]imidazole] | 10.5 | 4 (≈ 14.1 µM) | 4 (≈ 14.1 µM) | 
CN(C)[C@@H]1C(O)=C(C(N)=O)C(=O)[C@@]2(O)C(O)=C3C(=O)c4c(O)cccc4[C@@](C)(O)[C@H]3[C@H](O)[C@@H]12 [Oxytetracycline, reference compound] |  | 4 (≈ 8.69 µM) | 1 (≈ 2.17 µM) | 
(E)-1-Allyl-2-styryl-1H-benzo[d]imidazol-5-yl acetate [4f] | 18.3 |  |  | MIC N. salmonicida [1]: 32 µg/mL; MIC N. seriolae [2]: >50 µg/mL
C=CCn1c(-c2cccc(Oc3ccccc3)c2)nc2ccccc21 [8d, 1-Allyl-2-(3-phenoxyphenyl)-1H-benzo[d]imidazole] | 15.7 | 32 (≈ 98 µM) | > 50 | 
C=CCn1c(/C=C/c2ccccc2)nc2cc(C(F)(F)F)ccc21 [4b, (E)-1-Allyl-2-styryl-5-(trifluoromethyl)-1H-benzo[d]imidazole] |  | 0.5 (≈ 1.52 µM) | 1 (≈ 3.05 µM) | IC50 (NsdUTPase): 0.99 µM; activity improvement (NsdUTPase): more than 20 fold; viability at 24 h, 30 µM [3, 5]: > 70%; viability at 24 h, 30 µM ([3]; human, A549 cells): > 70%; Kd (NsdUTPase WT): 10.3 µM
C=CCn1c(/C=C/c2ccccc2)nc2cc(C(=O)c3ccccc3)ccc21 [4h, (E)-(1-Allyl-2-styryl-1H-benzo[d]imidazol-5-yl)(phenyl)methanone] | 9.62 | 8 (≈ 22 µM) | 8 (≈ 22 µM) | 
C=CCn1c(-c2ccc(Oc3ccccc3)cc2)nc2cc(C(F)(F)F)ccc21 [12a, 1-Allyl-2-(4-phenoxyphenyl)-5-(trifluoromethyl)-1H-benzo[d]imidazole] | 8.36 | 16 (≈ 40.6 µM) | > 50 | 
C=CCn1c(/C=C/c2ccccc2)nc2ccccc21 [F0414, (E)-1-Allyl-2-styryl-1H-benzo[d]imidazole, reference compound] | > 20 | 2 (≈ 7.68 µM) | 8 (≈ 30.7 µM) | 
C=CCn1c(/C=C/c2ccccc2)nc2cc(C#N)ccc21 [4e, (E)-1-Allyl-2-styryl-1H-benzo[d]imidazole-5-carbonitrile] | > 20 | 16 (≈ 56.1 µM) | > 50 | 
COc1cc(NS(=O)(=O)c2ccc(N)cc2)nc(OC)n1 [Sulfadimethoxine, reference compound] |  | 12.5 (≈ 40.3 µM) | > 50 | MIC N. seriolae [2]: >50 µg/mL
C=CCn1c(-c2ccc(-c3ccccc3)cc2)nc2ccccc21 [8b, 2-([1,1′-Biphenyl]-4-yl)-1-allyl-1H-benzo[d]imidazole] |  | 4 (≈ 12.9 µM) | 4 (≈ 12.9 µM) | 
1-(Cyclopropylmethyl)-2-(4-phenoxyphenyl)-5-(trifluoromethyl)-1H-benzo[d]imidazole [12f] | > 20 |  |  | MIC N. salmonicida [1]: 8 µg/mL; MIC N. seriolae [2]: 16 µg/mL
C=CCn1c(-c2ccc(Oc3ccccc3)nc2)nc2cc(C(F)(F)F)ccc21 [12h, 1-Allyl-2-(6-phenoxypyridin-3-yl)-5-(trifluoromethyl)-1H-benzo[d]imidazole] | > 20 | 32 (≈ 80.9 µM) | > 50 | 
C=CCn1c(/C=C/c2ccc(N(C)C)cc2)nc2ccccc21 [4g, (E)-4-(2-(1-Allyl-1H-benzo[d]imidazol-2-yl)vinyl)-N,N-dimethylaniline] | 2.98 | 16 (≈ 52.7 µM) | > 50 | 
C=CCn1c(-c2ccc(Oc3cccnc3)cc2)nc2cc(C(F)(F)F)ccc21 [12g, 1-Allyl-2-(4-(pyridin-3-yloxy)phenyl)-5-(trifluoromethyl)-1H-benzo[d]imidazole] | > 20 | 32 (≈ 80.9 µM) | > 50 | 
Cc1ccnc(NS(=O)(=O)c2ccc(N)cc2)n1 [Sulfamerazin, reference compound] |  |  |  | MIC N. salmonicida [1]: >50 µg/mL; MIC N. seriolae [2]: >50 µg/mL; MIC N. seriolae ([2]; listed as sulfamerazin): > 50 µg/mL
C=CCn1c(-c2ccc(Oc3ccccc3)cc2)nc2cc(C)ccc21 [12b, 1-Allyl-5-methyl-2-(4-phenoxyphenyl)-1H-benzo[d]imidazole] |  | 1 (≈ 2.94 µM) | 2 (≈ 5.87 µM) | IC50 (NsdUTPase): 0.7 µM; activity improvement (NsdUTPase): more than 20 fold; viability at 24 h, 30 µM [3, 5]: > 70%; viability at 24 h, 30 µM ([3]; human, A549 cells): > 70%; Kd (NsdUTPase WT): 7.49 µM
